# Laboratory results published in patent US9974727B2, “Hair growth and hair restoration material” (INSTITUTE OF RHEOLOGICAL FUNCTION OF FOOD CO., LTD., priority 2011, dated 2018).
# Legend:
# Type in all cases: in vivo
# [1] = tested on: Hsp70 (heat shock protein 70); assay: Preliminary test for hair growth using mice, Hsp70 immunostaining of skin; conditions: 10 pg/mL, 3 hours after application; hair papilla cells of hair root in telogen
# Description: (§1) A 70% by mass aqueous ethanol solution containing FCG obtained in Production Example 1 at a concentration of 10 pg/mL (sample solution) was prepared.
# (§2) The sample solution (20 μL) was applied onto the shaved back skin of four 9-week-old ICR male mice, and skin was collected after 3 hours and after 6 hours.
# (§3) The skin was subjected to immunostaining for bFGF (basic fibroblast growth factor), Hsp70 (heat shock protein 70), and VEGF (vascular endothelial cell growth factor) by the fluorescent antibody technique and HE staining (hematoxylin-eosin staining), and samples of 14 μm-thick cryostat sections were prepared.
# head hair = assay: Hair growth effect on human head hair; conditions: person
# Description: (§4) The hair growth effect of FCG on head hair of a person was examined.
# After hair was thoroughly washed and dried completely with a dryer, about 3.5 mL of a 70% by mass aqueous ethanol solution (sample solution) containing FCG at a concentration of 10 pg/mL was evenly applied, to the scalp once a day.
# Before use of the sample solution and 4 months after start of use, photographs were taken by a digital camera from the forehead and the top of head.
# as §4
# After hair was thoroughly washed and naturally dried completely, about 3.5 mL of a 70% by mass aqueous ethanol solution (sample solution) containing FCG at a concentration of 10 pg/mL was evenly applied to the scalp once a day.
# On the date of start of use of the sample solution and 5 months after start of use, photographs of the forehead and the top of head were taken by a digital camera.
# [2] = tested on: bFGF (basic fibroblast growth factor); assay: Preliminary test for hair growth using mice, bFGF immunostaining of skin
# Description: as §1, §2, §3
# [3] = tested on: VEGF (vascular endothelial cell growth factor); assay: Preliminary test for hair growth using mice, VEGF immunostaining of skin; conditions: 10 pg/mL, 3 hours after application
# Description: as §1, §2, §3
# C3H male mice = assay: Hair growth test on shaved backs of mice; conditions: for Hair growth state 2 weeks after application: 20 μL on shaved back, mice with hair growth / mice
# Description: The FCG obtained in Production Example 1, the SCG obtained in Production Example 2, the CSG obtained in Production Example 3, and the RSG obtained in Production Example 4 were each dissolved, in 70% by mass ethanol water, and the following solutions were prepared:
# Furthermore, commercially available cholesterol (hereinafter, abbreviated as “Cho”) was dissolved in 70% by mass ethanol water to prepare a Cho 10 pg/mL solution.
# The body hair on the back of 8 to 9-week-old C3H male mice was shaved using an electric clippers for animal use (“Thrive clipper, Model 600AD” manufactured by Daito Electric Company) together with a rotary shaver (National ES611).
# Each of the sample solutions (20 μL) was applied in four portions to the skin in central parts of the shaved backs of mice while repeating air drying. The application was conducted 24 hours after shaving.
# The hair growth effect was evaluated 2 weeks after the application of the sample solution on the basis of observation with the naked eye and photographs taken by a digital camera. Furthermore, as controls, mice applied with 70% by mass ethanol water and mice not applied with a sample solution were used.
# [4] = tested on: shaved back skin of ICR male mice; assay: Preliminary test for hair growth using mice, HE staining of skin; conditions: 10 pg/mL, 20 μL
# Description: as §1, §2, §3
# [5] = 10 pg/mL, about 3.5 mL once a day, 5 months after start of use
# [6] = 10 pg/mL, 6 hours after application
# [7] = C3H mice, 2 weeks after application
structure (smiles),measurement,setting,value
"CC(C)CCC[C@@H](C)[C@H]1CC[C@H]2[C@@H]3CC=C4C[C@@H](O[C@@H]5O[C@H](CO)[C@@H](O)[C@H](O)[C@H]5O)CC[C@]4(C)[C@H]3CC[C@]12C [FCG, cholesteryl glucopyranoside]",Hsp70 expression (immunostaining),[1],Weak to moderate expression of Hsp70 was detected
same,Hair growth on forehead and top of head,"head hair; 10 pg/mL, about 3.5 mL once a day, 4 months after start of use",a large amount of hair growth was observed
same,Hair growth on forehead,head hair; [5],hair growth was observed
same,Hair growth on top of head,head hair; [5],a good amount of hair growth was observed
same,Side effects,head hair; one year after start of use,side effects are not recognized
same,bFGF expression (immunostaining),"[2]; 10 pg/mL, 3 hours after application, hair follicle, epidermis, bulge region, external root sheath, erector pili muscles",Strong expression of bFGF was detected
same,bFGF expression in erector pili muscles (immunostaining),[2]; [6],reduced to moderate
same,bFGF expression in hair papilla cells (immunostaining),[2]; [6],became weak
same,"bFGF expression, conclusion","[2]; epidermis, external root sheath, bulge region, hair matrix",expression of bFGF is induced
same,VEGF expression (immunostaining),[3],VEGF positive reaction was found in hair papilla cells in the hair matrix
same,Hair growth state 2 weeks after application,C3H male mice; 1 pg/mL in 70% ethanol water,6/8
same,Hair growth state 2 weeks after application,C3H male mice; 10 pg/mL in 70% ethanol water,4/8
same,Hair growth state 2 weeks after application,C3H male mice; 100 pg/mL in 70% ethanol water,5/7
same,Death of mice during hair growth test,"C3H male mice; 100 pg/mL, 2 weeks after application",one mouse died
same,Hair growth action at 1 pg/mL compared with 10 pg/mL,C3H male mice; [7],higher
same,"HE staining, hair root and hair bulb","[4]; 3 hours after application, one of two mice",local extension of the hair root and enlargement of the hair bulb were observed
same,"HE staining, hair root",[4]; 6 hours after application,Most of the hair roots extended to the subcutaneous tissue
"CC(C)CCC[C@@H](C)[C@H]1CC[C@H]2[C@@H]3CC=C4C[C@@H](O)CC[C@]4(C)[C@H]3CC[C@]12C [Cho, cholesterol, reference compound]",Hair growth state 2 weeks after application,C3H male mice; 10 pg/mL in 70% ethanol water,4/8
same,Hair growth action (summary of Table 1),C3H male mice; [7],weak
"CC(C)CCC[C@@H](C)[C@H]1CC[C@H]2[C@@H]3CC=C4C[C@@H](O[C@@H]5O[C@H](CO)[C@@H](O)[C@H](O)[C@H]5O)CC[C@]4(C)[C@H]3CC[C@]12C [SCG, cholesteryl-β-D-glucopyranoside]",Hair growth state 2 weeks after application,C3H male mice; 1 pg/mL in 70% ethanol water,6/8
same,Hair growth state 2 weeks after application,C3H male mice; 10 pg/mL in 70% ethanol water,⅝
same,Hair growth state 2 weeks after application,C3H male mice; 100 pg/mL in 70% ethanol water,⅜
same,Hair growth action (summary of Table 1),C3H male mice; [7],same hair growth action as that of the cholesteryl glucopyranoside derived from feathers (FCG)
